Literature values in US20030104085A1, “Methods and compositions for treating back pain” (priority 2001, published 2003).

Tests used:
[1] = system: rats; settings: subcutaneous and epidural administration; cited from earlier work
[2] = system: nerve endings in the skin; settings: topical administration; cited from earlier work

## C=C(C)[C@]12C[C@@H](C)[C@@]34O[C@](Cc5ccccc5)(O[C@@H]1[C@@H]3C=C(COC(=O)Cc1ccc(O)c(OC)c1)C[C@]1(O)C(=O)C(C)=C[C@@H]41)O2 [RTX, resiniferatoxin]
[1]
  thermal analgesia: produce thermal analgesia
  time without restoration of pain sensitivity: over 7 days
[2]
  sensitivity to chemical pain stimulation: long-lasting insensitivity to chemical pain stimulation
